In PubChem BioAssay AID1671277:

Target: Tyrosine-protein kinase Fgr (Homo sapiens) (UniProt P09769)
Assay: inhibitors of human FGR tyrosine kinase activity – biochemical, Z'-LYTE, FRET readout, direct format, dose response (AID 1671277)
Conditions: recombinant FGR

Tyrosine-protein kinase Fgr (Homo sapiens), sequence (P09769 whole entry, looked up): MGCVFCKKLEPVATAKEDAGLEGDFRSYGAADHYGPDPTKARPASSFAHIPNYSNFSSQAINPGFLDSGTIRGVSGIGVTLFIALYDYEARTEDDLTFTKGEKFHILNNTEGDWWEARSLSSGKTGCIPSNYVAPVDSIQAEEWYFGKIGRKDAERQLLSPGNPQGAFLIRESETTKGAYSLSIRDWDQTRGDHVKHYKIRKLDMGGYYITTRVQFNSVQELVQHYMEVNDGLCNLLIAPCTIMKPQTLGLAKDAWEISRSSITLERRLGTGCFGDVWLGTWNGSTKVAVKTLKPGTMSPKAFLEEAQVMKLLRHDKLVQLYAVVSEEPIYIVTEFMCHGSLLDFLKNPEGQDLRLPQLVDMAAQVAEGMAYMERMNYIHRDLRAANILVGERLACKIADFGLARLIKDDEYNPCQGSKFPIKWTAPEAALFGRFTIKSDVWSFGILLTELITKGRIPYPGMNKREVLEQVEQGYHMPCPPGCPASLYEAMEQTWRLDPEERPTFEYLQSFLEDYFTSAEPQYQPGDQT

COc1cc2ncnc(Nc3cccc(Cl)c3)c2cc1OC
IC50: 919 nM
